These results are taken from US20240285621A1, “PYRAZOLYL-PYRIMIDINE DERIVATIVES AS KINASE INHIBITORS” (NERVIANO MEDICAL SCIENCES S.R.L., priority 2020, published 2024).

The structures appear in SMILES notation. Counter-ions that a name gives are not always drawn.

Test [1] concerns the target T1, SYK (Homo sapiens, UniProt P43405).
T1 construct: Recombinant proteins SYK FL was produced at NMS via baculo virus infection in insect cells; His; GST; made in house; host or cells: insect cells (baculovirus)
As to the kind of experiment: Biochemical kinase inhibition assay on SYK, KinaseGlo assay format. Conditions: read-out: IC50 (μM) Kglo.

For test [2], the target named is T1, SYK. As to the kind of experiment: Biochemical kinase inhibition assay on SYK, ADPGlo assay format. The following applies: Table A, pre-activated SYK 0.6 nM, ATP 60 μM, BioDBn*327 125 μM, 60 minutes at room temperature.
[3] abbreviates: Table A, KinaseGlo format, pre-activated SYK 2.5 nM, ATP 2.5 μM, substrate BioDBn*327 125 uM, 60 minutes at rt.
Setting [4] is: Table B, reference compounds of WO2012/139930, KinaseGlo format on Syk.

Take `COc1cc(F)cc(Nc2nccc(-c3cc(C(=O)N[C@@H](C)CN4CCC4)n(C)n3)n2)c1` [Example 48, N-[(2S)-1-(azetidin-1-yl)propan-2-yl]-3-{2-[(3-fluoro-5-methoxyphenyl)amino]pyrimidin-4-yl}-1-methyl-1H-pyrazole-5-carboxamide]: the IC50 is 0.006 µM at SYK [1] (setting [3]) and 0.023 µM at SYK [2].
In the case of `COc1cc(Nc2nccc(-c3cc(C(=O)N[C@@H](C)C(=O)N(C)C)n(C)n3)n2)cc(OC)c1` [Example 71, 3-{2-[(3,5-dimethoxyphenyl)amino]pyrimidin-4-yl}-N-[(2S)-1-(dimethylamino)-1-oxopropan-2-yl]-1-methyl-1H-pyrazole-5-carboxamide], the IC50 on SYK [1] (setting [3]) was determined as 0.452 µM.
For `Cc1cc(C)cc(Nc2nccc(-c3cc(C(=O)N4CC[C@@H](O)C4)n(C)n3)n2)c1` [Example 85, (3-{2-[(3,5-dimethylphenyl)amino]pyrimidin-4-yl}-1-methyl-1H-pyrazol-5-yl)[(3R)-3-hydroxypyrrolidin-1-yl]methanone], the concentration for half-maximal inhibition (IC50) on SYK [1] (setting [3]) amounted to 0.209 µM.
Turning to `Cc1cc(C)cc(Nc2nccc(-c3cc(C(=O)N4CC[C@H](N(C)C)C4)n(C)n3)n2)c1` [Example 86, [(3S)-3-(dimethylamino)pyrrolidin-1-yl](3-{2-[(3,5-dimethylphenyl)amino]pyrimidin-4-yl}-1-methyl-1H-pyrazol-5-yl)methanone], the IC50 on SYK [1] (setting [3]) came to 0.471 µM.
The same measure, in the same setting: to `Cc1cc(C)cc(Nc2nccc(-c3cc(C(=O)N4CCC(N)C4)n(C)n3)n2)c1` (stereo not shown) [Example 88, (3-aminopyrrolidin-1-yl)(3-{2-[(3,5-dimethylphenyl)amino]pyrimidin-4-yl}-1-methyl-1H-pyrazol-5-yl)methanone] belongs 0.051 µM.
`Cc1cc(C)cc(Nc2nccc(-c3cc(C(=O)N4CCC[C@H]4CO)n(C)n3)n2)c1` [Example 89, (3-{2-[(3,5-dimethylphenyl)amino]pyrimidin-4-yl}-1-methyl-1H-pyrazol-5-yl)[(2S)-2-(hydroxymethyl)pyrrolidin-1-yl]methanone]: the IC50 at SYK [1] (setting [3]) came out at 0.219 µM.
Take `Cc1cc(C)cc(Nc2nccc(-c3cc(C(=O)N4CC[C@H](O)C4)n(C)n3)n2)c1` [Example 90, (3-{2-[(3,5-dimethylphenyl)amino]pyrimidin-4-yl}-1-methyl-1H-pyrazol-5-yl)[(3S)-3-hydroxypyrrolidin-1-yl]methanone]: the IC50 on SYK [1] (setting [3]) was determined as 0.156 µM.
As to `Cc1cc(C)cc(Nc2nccc(-c3cc(C(=O)N[C@@H]4CCCC[C@@H]4O)n(C)n3)n2)c1` [Example 91, 3-{2-[(3,5-dimethylphenyl)amino]pyrimidin-4-yl}-N-[(1R,2S)-2-hydroxycyclohexyl]-1-methyl-1H-pyrazole-5-carboxamide], at SYK [1] (setting [3]), the 50% inhibitory concentration (IC50) was 0.035 µM.
The same measure, in the same setting: to `Cc1c(C)n(C)c2ccc(Nc3nccc(-c4cc(C(=O)N[C@@H](C)CO)n(C)n4)n3)cc12` [Example 93, N-[(2S)-1-hydroxypropan-2-yl]-1-methyl-3-{2-[(1,2,3-trimethyl-1H-indol-5-yl)amino]pyrimidin-4-yl}-1H-pyrazole-5-carboxamide] belongs 0.137 µM; to `Cc1cc(C)cc(Nc2nccc(-c3cc(C(=O)N4C[C@H]5C[C@H]4CN5)n(C)n3)n2)c1` [Example 96, (1S,4R)-2,5-diazabicyclo[2.2.1]hept-2-yl(3-{2-[(3,5-dimethylphenyl)amino]pyrimidin-4-yl}-1-methyl-1H-pyrazol-5-yl)methanone hydrochloride], 0.07 µM.
`Cn1nc(-c2ccnc(Nc3cc(Cl)cc(Cl)c3)n2)cc1C(=O)N[C@H]1CCCC[C@H]1N` [Example 99, N-[(1S,2R)-2-aminocyclohexyl]-3-{2-[(3,5-dichlorophenyl)amino]pyrimidin-4-yl}-1-methyl-1H-pyrazole-5-carboxamide hydrochloride]: the concentration for half-maximal inhibition (IC50) on SYK [1] (setting [3]) is 0.011 µM.
For `COc1cc(Nc2nccc(-c3cc(C(=O)N[C@H]4CCCC[C@H]4N)n(C)n3)n2)cc(OC)c1` [Example 100, N-[(1S,2R)-2-aminocyclohexyl]-3-{2-[(3,5-dimethoxyphenyl)amino]pyrimidin-4-yl}-1-methyl-1H-pyrazole-5-carboxamide hydrochloride], at SYK [1] (setting [3]), the IC50 worked out at 0.011 µM.
Turning to `Cc1cc(C)cc(Nc2nccc(-c3cc(C(=O)N[C@H]4CCCC[C@H]4N)[nH]n3)n2)c1` [Example 104, N-[(1S,2R)-2-aminocyclohexyl]-3-{2-[(3,5-dimethylphenyl)amino]pyrimidin-4-yl}-1H-pyrazole-5-carboxamide hydrochloride], the IC50 on SYK [1] (setting [3]) is less than 0.004 µM.
The same measure, in the same setting: to `Cc1cc(C)cc(Nc2nccc(-c3cc(C(=O)N[C@H](CN4CCC4)C(C)C)[nH]n3)n2)c1` [Example 105, N-[(2S)-1-(azetidin-1-yl)-3-methylbutan-2-yl]-3-{2-[(3,5-dimethylphenyl)amino]pyrimidin-4-yl}-1H-pyrazole-5-carboxamide] belongs 0.012 µM; to `Cc1cc(C)cc(Nc2nccc(-c3cc(C(=O)N[C@H](CN4CCCC4)c4ccccc4)n(C)n3)n2)c1` [Example 107, 3-{2-[(3,5-dimethylphenyl)amino]pyrimidin-4-yl}-1-methyl-N-[(1S)-1-phenyl-2-(pyrrolidin-1-yl)ethyl]-1H-pyrazole-5-carboxamide], 0.026 µM.
For the molecule `C[C@@H](CO)NC(=O)c1cc(-c2ccnc(Nc3ccc(N4CCN(C)CC4)c(Cl)c3)n2)nn1C` [Example 110, 3-(2-{[3-chloro-4-(4-methylpiperazin-1-yl)phenyl]amino}pyrimidin-4-yl)-N-[(2S)-1-hydroxypropan-2-yl]-1-methyl-1H-pyrazole-5-carboxamide], the half-maximal inhibitory concentration (IC50) on SYK [1] (setting [3]) was 0.452 µM.
Still for that read-out and setting: to `CC(C)[C@@H](CO)NC(=O)c1cc(-c2ccnc(Nc3ccc(N4CCN(C)CC4)c(Cl)c3)n2)nn1C` [Example 111, 3-(2-{[3-chloro-4-(4-methylpiperazin-1-yl)phenyl]amino}pyrimidin-4-yl)-N-[(2S)-1-hydroxy-3-methylbutan-2-yl]-1-methyl-1H-pyrazole-5-carboxamide] belongs 0.144 µM; to `Cc1cccc(Nc2nccc(-c3cc(C(=O)N[C@H](CN4CCCC4)C(C)C)n(C)n3)n2)c1` [Example 112, 1-methyl-3-{2-[(3-methylphenyl)amino]pyrimidin-4-yl}-N-[(2S)-3-methyl-1-(pyrrolidin-1-yl)butan-2-yl]-1H-pyrazole-5-carboxamide], 0.023 µM.
As for `Cn1nc(-c2ccnc(Nc3cc(F)cc(F)c3)n2)cc1C(=O)N[C@H]1CCCC[C@@H]1N` [Example 113, N-[(1S,2S)-2-aminocyclohexyl]-3-{2-[(3,5-difluorophenyl)amino]pyrimidin-4-yl}-1-methyl-1H-pyrazole-5-carboxamide], the half-maximal inhibitory concentration (IC50) at SYK [1] (setting [3]) came to 0.061 µM.
On the same count and under the same terms, next, `CN1CCN(c2ccc(Nc3nccc(-c4cc(C(=O)N[C@H]5CCCC[C@H]5O)n(C)n4)n3)cc2Cl)CC1` [Example 114, 3-(2-{[3-chloro-4-(4-methylpiperazin-1-yl)phenyl]amino}pyrimidin-4-yl)-N-[(1S,2R)-2-hydroxycyclohexyl]-1-methyl-1H-pyrazole-5-carboxamide]: 0.191 µM; `Cc1cc(C)cc(Nc2nccc(-c3cc(C(=O)N[C@H]4CCCC[C@H]4O)n(C)n3)n2)c1` [Example 115, 3-{2-[(3,5-dimethylphenyl)amino]pyrimidin-4-yl}-N-[(1S,2R)-2-hydroxycyclohexyl]-1-methyl-1H-pyrazole-5-carboxamide]: 0.023 µM.
Turning to `Cn1nc(-c2ccnc(Nc3cc(Cl)cc(Cl)c3)n2)cc1C(=O)N[C@H]1CCCC[C@@H]1N` [Example 116, N-[(1S,2S)-2-aminocyclohexyl]-3-{2-[(3,5-dichlorophenyl)amino]pyrimidin-4-yl}-1-methyl-1H-pyrazole-5-carboxamide], the 50% inhibitory concentration (IC50) at SYK [1] (setting [3]) is 0.011 µM.
As for `CC(C)[C@@H](CN1CCCC1)NC(=O)c1cc(-c2ccnc(Nc3cc(Cl)cc(Cl)c3)n2)nn1C` [Example 117, 3-{2-[(3,5-dichlorophenyl)amino]pyrimidin-4-yl}-1-methyl-N-[(2S)-3-methyl-1-(pyrrolidin-1-yl)butan-2-yl]-1H-pyrazole-5-carboxamide], the 50% inhibitory concentration (IC50) on SYK [1] (setting [3]) came to 0.007 µM.
Same read-out and setting: next, `Cc1cc(C)cc(Nc2nccc(-c3cc(C(=O)N[C@H]4CCCC[C@@H]4O)n(C)n3)n2)c1` [Example 118, 3-{2-[(3,5-dimethylphenyl)amino]pyrimidin-4-yl}-N-[(1S,2S)-2-hydroxycyclohexyl]-1-methyl-1H-pyrazole-5-carboxamide]: 0.045 µM.
On the same count and under the same terms, next, `CCn1nc(-c2ccnc(Nc3cc(C)cc(C)c3)n2)cc1C(=O)N[C@H]1CCCC[C@H]1O` [Example 120, 3-{2-[(3,5-dimethylphenyl)amino]pyrimidin-4-yl}-1-ethyl-N-[(1S,2R)-2-hydroxycyclohexyl]-1H-pyrazole-5-carboxamide]: 0.027 µM.
On the same count and under the same terms, to `CCn1nc(-c2ccnc(Nc3cc(C)cc(C)c3)n2)cc1C(=O)N[C@H]1CCCC[C@H]1N` [Example 121, N-[(1S,2R)-2-aminocyclohexyl]-3-{2-[(3,5-dimethylphenyl)amino]pyrimidin-4-yl}-1-ethyl-1H-pyrazole-5-carboxamide hydrochloride] belongs 0.012 µM; to `CCn1nc(-c2ccnc(Nc3cc(C)cc(C)c3)n2)cc1C(=O)N[C@@H]1CCCNC1` [Example 122, 3-{2-[(3,5-dimethylphenyl)amino]pyrimidin-4-yl}-1-ethyl-N-[(3R)-piperidin-3-yl]-1H-pyrazole-5-carboxamide hydrochloride], 0.06 µM.
On to `CCc1cccc(CC)c1NC(=O)c1cc(-c2ccnc(Nc3ccccc3OC)n2)n(C)n1` [compound 7, reference compound], for which, at SYK [1] (setting [4]), the concentration for half-maximal inhibition (IC50) is more than 10 µM.
The same measure, in the same setting: to `CCc1cccc(CC)c1NC(=O)c1cc(-c2ccnc(Nc3ccccc3OC)n2)[nH]n1` [compound 14, reference compound] belongs more than 10 µM; to `CNC(=O)c1cc(-c2ccnc(N(C)C)n2)n(C(C)(C)C)n1` [compound 39, reference compound], more than 10 µM.
